Values joined by “and” are separate entries in the source; they are usually repeats but may differ in a detail not shown here. Equal values may be shown once. Read-outs that look alike come from different tables or passages of the source.
Assays:
[1] = in vivo; settings: rabbit
Description: All experiments of this example were performed using female New Zealand White rabbits. These rabbits (2.4-3.6 kg) were housed in a controlled environment and allowed free access to water and food.
Before dosing with drug the rabbit ear hair was clipped and treated with hair remover lotion (sold under the trademark NAIR, Carter-Wallace, Inc., New York, N.Y.), a catheter (Quick-Cath, 20 Ga, Travenol Laboratories, Inc., Deerfield, Ill.) and sterile intermittent infusion plug were then inserted in the rabbit's ear vein for infusion. […] For each separate administration of theophylline, a suitable amount of aminophylline (40 mg/kg) was dissolved in distilled water to make 10 ml injectable solution which was administered into a rabbit's ear vein as a continuous infusion over a period of 15 minutes.
Blood samples were collected from an ear vein (in the opposite ear from the infusion) at predetermined time intervals. Before collecting each sample, the rabbit ear was treated topically with xylene to dilate the ear vein for convenient sample collection. Immediately after each blood sample was drawn, 0.4 ml of blood was transfered to the centrifuge tube and 0.4 ml of acetronitrile with appropriate internal standard was added to precipitate the protein and extract drug components. After vortexing well, the blood acetonitrile mixture was centrifuged at 3000×G for ten minutes, and 10 μl of supernatent solution was then injected into the HPLC.
The post infusion data of theophylline were fitted to a two-compartment open model using the same procedure as described above. Although samples were collected while infusion of dyphylline was continuing, only post infusion data were used for dyphylline pharmacokinetic analysis.

[2] = Dyphylline 20 min intravenous infusion in two healthy male subjects: pharmacokinetics, blood pressure, pulse (Example 2); format: in vivo, human; settings: for V2, volume of peripheral compartment: Vd - V1; for Css, steady state: infusion rate/V1 Ke1, predicted only; for half-life / k el / Vd: human, in vivo, iv, 1000 mg; for half-life: 0.693/β
Description: 1000 mg of the drug dyphylline was infused over twenty minutes in two heathy male patients to determine the volume of distribution of the central compartment.
A physician evaluated two male volunteer subjects for their drug and disease histories. […] The subjects fasted from 10:00 p.m. before dosing at 7:30 a.m. the following day until four hours post dosing, after which food (except xanthines; i.e. chocolate, tea, coffee) and beverages were allowed ad lib.
A dose of 1,000 mg of dyphylline (Neothylline®) diluted in normal saline (0.9 percent) was administered at a rate of 50 mg/min via a constant infusion pump for twenty minutes. Blood pressure and electrocardiogram readings were monitored by a physician.
Whole blood (7 cc) was collected from each subject at time zero just prior to dosing and at 10, 15, 20, 30, 40 minutes and 1.0, 1.5, 2.0, 3.0, 4.0, 5.0, 6.0, 7.0, 8.0, 12.0, and 16.0 hours post dosing with a syringe. The heparin lock was cleared of all heparin solution and the lock filled with subject blood by using a disposable syringe prior to sampling. Each sample was then collected in a new disposable syringe and immediately transferred to a heparinized vacuum tube. After each sampling, the heparin lock was flushed and filled with heparin (10 u/ml). Once samples had been transferred to vacuum tubes, they were inverted several times, then stored in crushed ice until centrifuged and the plasma collected. Plasma samples were then frozen until assayed.
Plasma and urine samples were assayed by high-pressure liquid chromatography (HPLC) as reported by Gisclon, in the article mentioned above.
Plasma samples were prepared for assay by mixing 0.5 ml of plasma with 0.5 ml of acetonitrile containing β-hydroxyethyltheophylline (40 mcg/ml) as internal standard, and vortexed 15 seconds. The plasma sample with its protein precipitate was then centrifuged for 15 minutes at 2800 rpm and 5-40 μl injected into the HPLC.
FIGS. 5 and 6 show dyphylline plasma concentration vs. time curves for the subjects. Solid circles are the data points which were obtained by duplicate analysis of each sample by different analysts and the solid line represents the predicted values obtained after fitting the data with an Autoan computer package which uses CSTRIP and NONLIN (John G. Wagner, Fundamentals of Clinical Pharmacokinetics, Drug Intelligence Publications,Inc., Hamilton, Ill., 1975). This program determined that the data from time zero to 480 min. (8 hr) for subject one and 420 min. (7 hr) for subject two were compatible with a two compartment open model with zero order infusion for 20 minutes and first order elimination from the central compartment only. The fit to the data was quite good with r^2 =0.996 for subject one and 0.997 for subject two. The average percent deviation for the predicted lines from the data points was 7.7 percent and the estimated concentrations averaged 98.9 percent of the observed concentrations.

[3] = cited from earlier work

With `Cn1c(=O)c2c(ncn2CC(O)CO)n(C)c1=O` (stereo not drawn) [dyphylline, dihydroxypropyl theophylline] the “effect of dyphylline on half-life of theophylline” value [1] was “does not appear to alter the half-life of theophylline”, the “plasma concentration of dyphylline not toxic in the presence of about 100 mcg/ml theophylline” value [1] was “about 600 mcg/ml” and the Vd ([1]; iv, 666.7 mg/kg, average apparent volume of distribution of dyphylline administered with theophylline) was 0.41 L/kg. For the same molecule, the adverse side effects ([2]; 1000 mg over 20 min, two subjects) was “No adverse side effects were observed or reported”, the “Blood pressure, diastolic, Subject Two” value ([2]; 10 M, 15 M, 20 M (end), 30 M, 40 M, 60 M, 90 M, predose 125/80) was 80 mm Hg and 85 mm Hg and 75 mm Hg and the K12 ([2]; Subject 1, 1000 mg over 20 min) was 1.94 h⁻¹. For the same molecule, the K21 ([2]; Subject 1, 1000 mg over 20 min) was 2.50 h⁻¹, the α ([2]; Subject 1, 1000 mg over 20 min) was 4.73 h⁻¹ and the “V2, volume of peripheral compartment” value ([2]; Subject 1) was 30.28 L. For the same molecule, the “Css, steady state” value ([2]; Subject 1) was 142.56 µg/mL, the K12 ([2]; Subject 2, 1000 mg over 20 min) was 4.02 h⁻¹ and the K21 ([2]; Subject 2, 1000 mg over 20 min) was 4.39 h⁻¹. For the same molecule, the α ([2]; Subject 2, 1000 mg over 20 min) was 8.83 h⁻¹, the “V2, volume of peripheral compartment” value ([2]; Subject 2) was 25.45 L and the “Css, steady state” value ([2]; Subject 2) was 142.13 µg/mL. For the same molecule, the “blood pressure and pulse rate” value ([2]; during the study) was “essentially unchanged”, the half-life ([2]; Subject 1) was 2.11 h and the k el ([2]; Subject 1, 1000 mg over 20 min, read-out: Ke1 (converted)) was 0.000172 s⁻¹. It also gave a k el ([2]; Subject 1, 1000 mg over 20 min, read-out: β (converted)) of 9.17e-05 s⁻¹, a Vd ([2]; Subject 1, read-out: V1) of 33.9 L and a Vd ([2]; Subject 1, read-out: V3 (footnote: Vd, total volume of distribution)) of 64.2 L. It also gave a half-life ([2]; Subject 2) of 1.66 h, a k el ([2]; Subject 2, 1000 mg over 20 min, read-out: Ke1 (converted)) of 0.000233 s⁻¹ and a k el ([2]; Subject 2, 1000 mg over 20 min, read-out: β (converted)) of 0.000117 s⁻¹. The Vd ([2]; Subject 2, read-out: V1) was 25.1 L, the Vd ([2]; Subject 2, read-out: V3 (footnote: Vd, total volume of distribution)) was 50.6 L and the Vd ([2]; two subjects, range, read-out: volume of the central compartment per kg) was 0.35 to 0.47 L/kg. The Vd ([2]; two subjects, read-out: total volume of distribution, average) was roughly 0.8 L/kg, the Vd ([2]; two subjects, read-out: volume of the central compartment) was 25 to 34 L and the Vd ([2]; two subjects, read-out: volume of the central compartment, average) was roughly 0.41 L/kg. The adverse effect ([3]; 400 mg intravenous, about 48 mcg/ml, Zuidema 1981) was “no adverse effect”, the plasma concentration ([3]; 400 mg intravenous, very short time, Zuidema 1981) was “about 48 mcg/ml” and the protein binding ([3]; Gisclon et al.) was “may bind nonlinearly to protein”. For the same molecule, the “intravenous dyphylline accounted for in the urine” value ([3]; Lawyer) was “forty-four”, the peak plasma concentration ([3]; intravenous over ten minutes, one patient, Lawyer) was 17.4 µg/mL and the “conversion to theophylline in the body” value ([3]; literature) was “not converted to theophylline in the body”. For the same molecule, the tissue distribution ([3]; literature) was “penetrate the central nervous system, to infiltrate heart tissue and to distribute to lung tissue”, the initial distribution volume ([3]; person, 73 kg, Lawyer) was 26.2 L and the “total or steady state volume of distribution” value ([3]; person, 73 kg, Lawyer) was 32.1 L.
